Experimental data as given in the NIST ThermoML archive (doi:10.1021/je060116w).
Numbers after ± are expanded uncertainties.

Details: Hot wire method

FC(F)CC(F)(F)F [1,1,1,3,3-pentafluoropropane]
Gas
Details | thermal conductivity [W/m/K]
374.84 K, 1243 kPa | 0.01982 ± 0.00049
374.99 K, 997 kPa | 0.01966 ± 0.00048
375.13 K, 604.2 kPa | 0.01956 ± 0.00048
375.31 K, 1243 kPa | 0.01995 ± 0.00049
375.48 K, 997 kPa | 0.01969 ± 0.00048
375.71 K, 604.2 kPa | 0.01959 ± 0.00048
375.83 K, 1243 kPa | 0.02001 ± 0.00049
376.05 K, 997 kPa | 0.01976 ± 0.00049
376.31 K, 604.2 kPa | 0.01963 ± 0.00048
384.79 K, 1489.1 kPa | 0.0211 ± 0.00052
385.04 K, 998.9 kPa | 0.02061 ± 0.0005
385.2 K, 598.1 kPa | 0.02052 ± 0.0005
385.21 K, 1489.1 kPa | 0.02101 ± 0.00051
385.55 K, 998.9 kPa | 0.02067 ± 0.00051
385.68 K, 1489.1 kPa | 0.02112 ± 0.00052
385.76 K, 598.1 kPa | 0.02059 ± 0.0005
386.13 K, 998.9 kPa | 0.02072 ± 0.00051
386.35 K, 598.1 kPa | 0.0206 ± 0.0005
394.74 K, 1765.3 kPa | 0.02246 ± 0.00055
394.9 K, 1498.3 kPa | 0.02208 ± 0.00054
395.07 K, 602.5 kPa | 0.02148 ± 0.00052
395.09 K, 1004.6 kPa | 0.02149 ± 0.00052
395.16 K, 1765.3 kPa | 0.02251 ± 0.00055
395.36 K, 1498.3 kPa | 0.02216 ± 0.00054
395.52 K, 1765.3 kPa | 0.02258 ± 0.00055
395.58 K, 602.5 kPa | 0.02153 ± 0.00052
395.6 K, 1004.6 kPa | 0.02161 ± 0.00053
395.75 K, 1498.3 kPa | 0.02218 ± 0.00054
395.94 K, 602.5 kPa | 0.02147 ± 0.00052
396.04 K, 1004.6 kPa | 0.02168 ± 0.00053
404.55 K, 2269.8 kPa | 0.02483 ± 0.0006
404.75 K, 1999.2 kPa | 0.02362 ± 0.00057
404.85 K, 1500.7 kPa | 0.02277 ± 0.00055
404.89 K, 2269.8 kPa | 0.02475 ± 0.0006
405 K, 998.4 kPa | 0.02248 ± 0.00055
405.12 K, 604.3 kPa | 0.02248 ± 0.00055
405.14 K, 1999.2 kPa | 0.02364 ± 0.00057
405.29 K, 2269.8 kPa | 0.02484 ± 0.0006
405.3 K, 1500.7 kPa | 0.02285 ± 0.00056
405.48 K, 998.4 kPa | 0.02253 ± 0.00055
405.55 K, 1999.2 kPa | 0.02369 ± 0.00057
405.62 K, 604.3 kPa | 0.02249 ± 0.00055
405.78 K, 1500.7 kPa | 0.02302 ± 0.00056
406.02 K, 998.4 kPa | 0.0227 ± 0.00055
406.18 K, 604.3 kPa | 0.02253 ± 0.00055
414.76 K, 2496.6 kPa | 0.02664 ± 0.00064
414.88 K, 1998 kPa | 0.02456 ± 0.00059
415.04 K, 995.9 kPa | 0.02342 ± 0.00057
415.04 K, 1502.2 kPa | 0.02374 ± 0.00058
415.15 K, 604.1 kPa | 0.02337 ± 0.00057
415.25 K, 2496.6 kPa | 0.02694 ± 0.00065
415.45 K, 1998 kPa | 0.0246 ± 0.0006
415.64 K, 604.1 kPa | 0.02346 ± 0.00057
415.64 K, 1502.2 kPa | 0.02378 ± 0.00058
415.66 K, 2496.6 kPa | 0.02696 ± 0.00065
415.68 K, 995.9 kPa | 0.02355 ± 0.00057
415.92 K, 1998 kPa | 0.02467 ± 0.0006
416.18 K, 1502.2 kPa | 0.02399 ± 0.00058
416.19 K, 604.1 kPa | 0.02348 ± 0.00057
416.22 K, 995.9 kPa | 0.0236 ± 0.00057

Liquid
Details | thermal conductivity [W/m/K]
375.06 K | 0.0631 ± 0.0013
375.44 K | 0.06262 ± 0.0013
384.7 K | 0.06117 ± 0.0013
385.14 K | 0.0606 ± 0.0013
385.48 K | 0.05985 ± 0.0012
394.71 K | 0.05833 ± 0.0012
395.1 K | 0.05813 ± 0.0012
395.52 K | 0.05783 ± 0.0012
404.77 K | 0.05598 ± 0.0012
405.12 K | 0.05595 ± 0.0012
405.54 K | 0.05564 ± 0.0011
414.79 K | 0.05331 ± 0.0011
415.16 K | 0.05316 ± 0.0011
415.54 K | 0.0529 ± 0.0011
